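96-well plates; 48 h exposure; 5 concentrations. Endpoints by linear interpolation between flanking doses. Not reached: highest tested concentration assigned. GI50 marks 50% less growth.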 The source made the active and inactive calls. Cut-off read from the data, not from the text of the source: active = GI50 up to about 1.1 µM and inactive = higher.
Legend:
Assay in all cases: NCI anticancer screen, dose series, 48 h
MDA-MB-435 = tested on: MDA-MB-435
HCC 2998 = tested on: HCC 2998
Hs-578T = tested on: Hs-578T
SK-MEL-5 = tested on: SK-MEL-5
IGROV-1 = tested on: IGROV-1
NCI-H460 = tested on: NCI-H460
NCI-H226 = tested on: NCI-H226
CAKI-1 = tested on: CAKI-1
HT-29 = tested on: HT-29
U-251 = tested on: U-251
M14 = tested on: M14
HOP-62 = tested on: HOP-62
RPMI-8226 = tested on: RPMI-8226
UACC-62 = tested on: UACC-62
A549 = tested on: A549
DU-145 = tested on: DU-145
SN12C = tested on: SN12C
SF-295 = tested on: SF-295
OVCAR-4 = tested on: OVCAR-4
MDA-MB-231 = tested on: MDA-MB-231
BT-549 = tested on: BT-549
EKVX = tested on: EKVX
UACC-257 = tested on: UACC-257
SNB-19 = tested on: SNB-19
SK-MEL-28 = tested on: SK-MEL-28
HL-60 = tested on: HL-60
SNB-75 = tested on: SNB-75
KM12 = tested on: KM12
A498 = tested on: A498
SK-OV-3 = tested on: SK-OV-3
COLO 205 = tested on: COLO 205
786-0 = tested on: 786-0
HOP-92 = tested on: HOP-92
SW-620 = tested on: SW-620
MDA-N = tested on: MDA-N
Malme-3M = tested on: Malme-3M
HCT-116 = tested on: HCT-116
ACHN = tested on: ACHN
T47D = tested on: T47D
SF-268 = tested on: SF-268
HCT-15 = tested on: HCT-15
LOX IMVI = tested on: LOX IMVI
OVCAR-8 = tested on: OVCAR-8
PC-3 = tested on: PC-3
CCRF-CEM = tested on: CCRF-CEM
SK-MEL-2 = tested on: SK-MEL-2
TK-10 = tested on: TK-10
RXF 393 = tested on: RXF 393
NCI-H522 = tested on: NCI-H522
NCI/ADR-RES = tested on: NCI/ADR-RES
SF-539 = tested on: SF-539
NCI-H23 = tested on: NCI-H23
OVCAR-5 = tested on: OVCAR-5
OVCAR-3 = tested on: OVCAR-3
SR = tested on: SR
MOLT-4 = tested on: MOLT-4
UO-31 = tested on: UO-31
K562 = tested on: K562
MCF7 = tested on: MCF7

For `O=C1C(Cl)=C(N[C@@H](Cc2ccccc2)C(=O)OCc2ccccc2)C(=O)c2c(O)ccc(O)c21`, the GI50 (MDA-MB-435) was 3.17 µM (inactive), the GI50 (HCC 2998) was > 10 µM (inactive) and the GI50 (Hs-578T) was 4.89 µM (inactive). The GI50 (SK-MEL-5) was 3.24 µM (inactive), the GI50 (IGROV-1) was 4.08 µM (inactive) and the GI50 (NCI-H460) was 4.59 µM (inactive). For the same compound, the GI50 (NCI-H226) was 5.3 µM (inactive), the GI50 (CAKI-1) was > 10 µM (inactive) and the GI50 (HT-29) was 4 µM (inactive). For the same compound, the GI50 (U-251) was 3.01 µM (inactive), the GI50 (M14) was 3.8 µM (inactive) and the GI50 (HOP-62) was 3.52 µM (inactive). The GI50 (RPMI-8226) was > 10 µM (inactive), the GI50 (UACC-62) was 2.96 µM (inactive) and the GI50 (A549) was 3.47 µM (inactive). For the same compound, the GI50 (DU-145) was 4.45 µM (inactive), the GI50 (SN12C) was 3.93 µM (inactive) and the GI50 (SF-295) was 5.66 µM (inactive). The GI50 (OVCAR-4) was 3.31 µM (inactive), the GI50 (MDA-MB-231) was 2.55 µM (inactive) and the GI50 (BT-549) was > 10 µM (inactive). For the same compound, the GI50 (EKVX) was 7.18 µM (inactive), the GI50 (UACC-257) was > 10 µM (inactive) and the GI50 (SNB-19) was 5.81 µM (inactive). For the same compound, the GI50 (SK-MEL-28) was 6.34 µM (inactive), the GI50 (HL-60) was 2.07 µM (inactive) and the GI50 (SNB-75) was 4.73 µM (inactive). For the same compound, the GI50 (KM12) was 4.45 µM (inactive), the GI50 (A498) was 7.33 µM (inactive) and the GI50 (SK-OV-3) was > 10 µM (inactive). For the same compound, the GI50 (COLO 205) was 2.28 µM (inactive), the GI50 (786-0) was 3.11 µM (inactive) and the GI50 (HOP-92) was 6.3 µM (inactive). For the same compound, the GI50 (SW-620) was 5.65 µM (inactive), the GI50 (MDA-N) was 2.89 µM (inactive) and the GI50 (Malme-3M) was 5.35 µM (inactive). For the same compound, the GI50 (HCT-116) was 1.65 µM (inactive), the GI50 (ACHN) was 4.05 µM (inactive) and the GI50 (T47D) was > 10 µM (inactive). For the same compound, the GI50 (SF-268) was 2.91 µM (inactive), the GI50 (HCT-15) was 1.19 µM and the GI50 (LOX IMVI) was 2.99 µM (inactive). For the same compound, the GI50 (OVCAR-8) was 3.73 µM (inactive), the GI50 (PC-3) was 3.72 µM (inactive) and the GI50 (CCRF-CEM) was 0.485 µM (active). The GI50 (SK-MEL-2) was 6.7 µM (inactive), the GI50 (TK-10) was > 10 µM (inactive) and the GI50 (RXF 393) was 4.92 µM (inactive). For the same compound, the GI50 (NCI-H522) was 6.41 µM (inactive), the GI50 (NCI/ADR-RES) was 1.88 µM (inactive) and the GI50 (SF-539) was 2.42 µM (inactive). For the same compound, the GI50 (NCI-H23) was 4.42 µM (inactive), the GI50 (OVCAR-5) was 6.18 µM (inactive) and the GI50 (OVCAR-3) was 2.45 µM (inactive).

In the case of `O=C(O)c1ccc2nc(-c3ccccn3)c(-c3ccccn3)nc2c1`, the GI50 (MDA-MB-435) is reported as > 100 µM (inactive), the GI50 (HCC 2998) is reported as > 100 µM (inactive) and the GI50 (Hs-578T) is reported as > 100 µM (inactive). The GI50 (SK-MEL-5) was > 100 µM (inactive), the GI50 (IGROV-1) was > 100 µM (inactive) and the GI50 (NCI-H460) was > 100 µM (inactive). For the same compound, the GI50 (NCI-H226) was > 100 µM (inactive), the GI50 (CAKI-1) was > 100 µM (inactive) and the GI50 (SR) was > 100 µM (inactive). The GI50 (HT-29) was > 100 µM (inactive), the GI50 (U-251) was > 100 µM (inactive) and the GI50 (M14) was > 100 µM (inactive). The GI50 (HOP-62) was > 100 µM (inactive), the GI50 (RPMI-8226) was > 100 µM (inactive) and the GI50 (UACC-62) was > 100 µM (inactive). For the same compound, the GI50 (DU-145) was > 100 µM (inactive), the GI50 (SF-295) was > 100 µM (inactive) and the GI50 (OVCAR-4) was > 100 µM (inactive). The GI50 (MDA-MB-231) was > 100 µM (inactive), the GI50 (BT-549) was > 100 µM (inactive) and the GI50 (EKVX) was > 100 µM (inactive). For the same compound, the GI50 (UACC-257) was > 100 µM (inactive), the GI50 (SNB-19) was > 100 µM (inactive) and the GI50 (SK-MEL-28) was > 100 µM (inactive). The GI50 (HL-60) was > 100 µM (inactive), the GI50 (SNB-75) was > 100 µM (inactive) and the GI50 (MOLT-4) was > 100 µM (inactive). The GI50 (KM12) was > 100 µM (inactive), the GI50 (A498) was > 100 µM (inactive) and the GI50 (SK-OV-3) was > 100 µM (inactive). For the same compound, the GI50 (COLO 205) was > 100 µM (inactive), the GI50 (786-0) was > 100 µM (inactive) and the GI50 (HOP-92) was > 100 µM (inactive). The GI50 (UO-31) was > 100 µM (inactive), the GI50 (SW-620) was > 100 µM (inactive) and the GI50 (HCT-116) was > 100 µM (inactive). The GI50 (ACHN) was > 100 µM (inactive), the GI50 (T47D) was > 100 µM (inactive) and the GI50 (SF-268) was > 100 µM (inactive). For the same compound, the GI50 (HCT-15) was greater than 100 µM, the GI50 (LOX IMVI) was > 100 µM (inactive) and the GI50 (OVCAR-8) was > 100 µM (inactive). For the same compound, the GI50 (PC-3) was > 100 µM (inactive), the GI50 (CCRF-CEM) was > 100 µM (inactive) and the GI50 (SK-MEL-2) was > 100 µM (inactive). The GI50 (TK-10) was > 100 µM (inactive), the GI50 (RXF 393) was > 100 µM (inactive) and the GI50 (NCI/ADR-RES) was > 100 µM (inactive). The GI50 (SF-539) was > 100 µM (inactive), the GI50 (K562) was > 100 µM (inactive) and the GI50 (NCI-H23) was > 100 µM (inactive). For the same compound, the GI50 (MCF7) was > 100 µM (inactive).

Reference: ChEMBL document CHEMBL1201862, “PubChem BioAssay data set” (2004)
